Like-named read-outs stand apart in the source and are kept apart here.
What was measured:
hMT1 = hMT1 (Homo sapiens, UniProt P48039); test: 2-[125I]-iodomelatonin competition binding, human MT1; parameters: hMT1: unit not given here
Method: (§1) This approach has been described very often by our laboratory and others. […] The results were expressed as Ki, taking into account the concentration of radioligand used in each experiment. […] The reaction was stopped by rapid filtration through GF/B Unifilters, followed by three successive washes with ice-cold buffer. Data were analyzed by using the program PRISM (GraphPad Software Inc., San Diego, CA). For saturation assays, the density of binding sites (Bmax) and the dissociation constant of the radioligand (KD) were calculated according to the Scatchard method. […] A similar protocol was used when the binding was performed on whole cells, as described by Legros et al.. As per Plos One policy, all the raw data–listings from radioactivity counter are attached as raw files (Supplementary Tables A to M in S1 Data).

Platypus Mel1C [1] = target: T1, Platypus Mel1C (Ornithorhynchus anatinus, UniProt A0A2P1K6N2); test: 2-[125I]-iodomelatonin competition binding, membranes from stably transfected CHO cells, platypus Mel1c; settings: membranes from stably transfected CHO cells, radioligand 2-[125I]-iodomelatonin; for Ki: read-out: Platypus Mel1C (converted)
Method: (§2) CHO-Flp-In cells (Thermo Fisher Scientific, Waltham, USA) were cultivated in the presence of zeocin (0.1 mg/ml). The cells were cotransfected with either platypus (cloned sequence that will be submitted to GenBank) Mel1c/pcDNA5-FRT (platypus Mel1c) or X. laevis (NM 001087919.1) Mel1c/pcDNA5-FRT (clawed frog Mel1c) and Flp recombinase expression pOG44 plasmid using PEIpro (Invitrogen, Carlsbad, CA). CHO cells stably expressing platypus Mel1c or clawed frog Mel1c were selected using hygromycin (0.6 mg/ml). CHO-Flp-In-platypus Mel1c cells were grown in HAM F12 with 2 mM glutamine and supplemented with 10% fetal calf serum. Cells were selected using antibiotic pressure (hygromycin) for 72 h. […] After confirmation of the presence of the transgene, the cells were amplified up to 2 x 10^9 cells. This material was used to prepare the cell membranes used in further pharmacological experiments.
(§3) This standard procedure was described in a previous experiment with CHO cells expressing the sheep MT2 receptor [23]. […] The resulting pellet was suspended in 5 mM Tris/HCl (pH 7.4) containing 2 mM EDTA and homogenized using a Kinematica polytron. The homogenate was then centrifuged (20,000g, 30 min, 4°C) and the resulting pellet suspended in 75 mM Tris/HCl (pH 7.4) containing 2 mM EDTA and 12.5 mM MgCl2. The protein content was determined according to the method of Lowry et al. using the Bio-Rad kit (Bio-Rad SA, Ivry-sur-Seine, France). Aliquots of membrane preparations were stored in binding buffer (50 mM Tris/HCl, pH 7.4 containing 5 mM MgCl2 and 1 mM EDTA) at –80°C until use.
as §1

X. laevis Mel1c receptor = target: T2, X. laevis Mel1c receptor (Xenopus laevis, UniProt P49219); test: 2-[125I]-iodomelatonin competition binding, transiently transfected COS7 cells, Xenopus Mel1c; settings: COS7 cells transiently transfected with Mel1c gene, radioligand 2-[125I]-iodomelatonin, two transfections, triplicate
T2 construct: expressed in transfected cells; host or cells: COS7 (transient nucleofection, pCIneo vector)
T2 sequence (P49219 1-354 isoform P49219-2): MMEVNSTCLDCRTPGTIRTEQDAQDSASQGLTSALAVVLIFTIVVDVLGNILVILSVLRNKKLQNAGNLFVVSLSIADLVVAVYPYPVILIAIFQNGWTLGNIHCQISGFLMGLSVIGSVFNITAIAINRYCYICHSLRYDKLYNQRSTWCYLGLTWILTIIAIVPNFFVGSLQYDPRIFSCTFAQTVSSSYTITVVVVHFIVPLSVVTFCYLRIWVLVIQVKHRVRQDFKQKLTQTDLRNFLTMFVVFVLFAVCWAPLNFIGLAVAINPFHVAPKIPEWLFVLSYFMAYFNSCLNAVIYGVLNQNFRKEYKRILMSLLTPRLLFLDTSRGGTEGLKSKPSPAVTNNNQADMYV
Method: (§4) COS7 cells obtained from the American Type Culture Collection were maintained in DMEM GlutaMAX (Thermo Fisher Scientific, Waltham, USA) supplemented with 10% (v/v) fetal calf serum. Nucleofection of COS7 cells was performed according to the manufacturer's instructions using the Nucleofector machine (Amaxa, Cologne, Germany). Adherent COS7 cells were washed in phosphate-buffered saline (PBS), trypsinized, and gently resuspended in V nucleofection solution to a final concentration of 7 × 10^6 cells/100 μl. Next, 5 μg of pCIneo/Mel1c vector was mixed with 100 μl of the COS7 cell suspension, transferred to a […] electroporation cuvette, and nucleofected using program A024 and an Amaxa Nucleofector apparatus. Just after the nucleofection, 500 μl of media supplemented with 20% (v/v) fetal calf serum was added to the cell suspension and cultured in a humidified 37°C, 5% CO2 incubator for 20 minutes. Fourteen million cells were transferred to a T225 flask containing 50 ml of media supplemented with 20% (v/v) fetal calf serum and cultured in a humidified 37°C, 5% CO2 incubator. Two days after transfection, the cells were harvested in PBS, pelleted, and stored at -80°C until use.
as §1
(§5) To obtain stable expression of the receptor for future studies, a preliminary step involving transient expression of the receptor was performed. The Mel1c receptors from the three species were expressed in transiently transfected COS7 cells. A limited number of compounds were tested in order to gain a preliminary perception of the characteristics of Mel1c from these species.

Xenopus Mel1C = target: T3, Xenopus Mel1C (Xenopus laevis, UniProt P49219); test: 2-[125I]-iodomelatonin competition binding, membranes from stably transfected CHO cells, Xenopus Mel1c; settings: radioligand 2-[125I]-iodomelatonin
T3 construct: expressed in transfected cells
T3 sequence (P49219 1-420): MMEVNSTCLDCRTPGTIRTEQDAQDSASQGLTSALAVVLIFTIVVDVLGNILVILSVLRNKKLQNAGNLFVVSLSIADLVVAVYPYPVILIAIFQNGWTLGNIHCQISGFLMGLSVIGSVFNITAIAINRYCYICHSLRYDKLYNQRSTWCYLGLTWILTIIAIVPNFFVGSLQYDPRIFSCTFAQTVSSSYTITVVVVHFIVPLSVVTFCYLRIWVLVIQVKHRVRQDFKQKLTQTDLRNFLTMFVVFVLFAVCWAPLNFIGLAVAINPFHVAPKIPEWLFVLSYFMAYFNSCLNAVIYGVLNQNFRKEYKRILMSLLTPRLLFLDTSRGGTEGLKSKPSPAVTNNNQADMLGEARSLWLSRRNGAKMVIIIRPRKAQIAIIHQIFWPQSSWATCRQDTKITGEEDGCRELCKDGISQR
Method: as §2, §3, §1

Platypus Mel1C [2] = target: T1, Platypus Mel1C; test: 2-[125I]-iodomelatonin competition binding, transiently transfected COS7 cells, platypus Mel1c; settings: COS7 cells transiently transfected with Mel1c gene; radioligand 2-[125I]-iodomelatonin; two transfections, triplicate
Method: as §4, §1, §5

G. gallus Mel1c receptor = target: T4, G. gallus Mel1c receptor (Gallus gallus, UniProt P49288); test: 2-[125I]-iodomelatonin competition binding, transiently transfected COS7 cells, chicken Mel1c; settings: COS7 cells transiently transfected with Mel1c gene; radioligand 2-[125I]-iodomelatonin; two transfections, triplicate
T4 construct: expressed in transfected cells; host or cells: COS7 (transient nucleofection, pCIneo vector)
T4 sequence (P49288 1-346): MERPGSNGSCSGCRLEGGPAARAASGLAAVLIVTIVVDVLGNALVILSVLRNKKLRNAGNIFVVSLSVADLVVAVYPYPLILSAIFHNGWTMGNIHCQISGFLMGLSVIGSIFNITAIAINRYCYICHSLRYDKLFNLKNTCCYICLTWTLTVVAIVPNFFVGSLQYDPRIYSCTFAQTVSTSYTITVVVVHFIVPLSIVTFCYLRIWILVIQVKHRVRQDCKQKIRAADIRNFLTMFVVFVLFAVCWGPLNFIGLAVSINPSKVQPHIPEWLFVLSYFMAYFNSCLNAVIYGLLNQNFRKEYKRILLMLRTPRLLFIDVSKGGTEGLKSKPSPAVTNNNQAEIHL
Method: as §4, §1, §5

hMT2 = target: T5, hMT2 (Homo sapiens, UniProt P49286); test: 2-[125I]-iodomelatonin competition binding, human MT2
T5 sequence (P49286 1-362): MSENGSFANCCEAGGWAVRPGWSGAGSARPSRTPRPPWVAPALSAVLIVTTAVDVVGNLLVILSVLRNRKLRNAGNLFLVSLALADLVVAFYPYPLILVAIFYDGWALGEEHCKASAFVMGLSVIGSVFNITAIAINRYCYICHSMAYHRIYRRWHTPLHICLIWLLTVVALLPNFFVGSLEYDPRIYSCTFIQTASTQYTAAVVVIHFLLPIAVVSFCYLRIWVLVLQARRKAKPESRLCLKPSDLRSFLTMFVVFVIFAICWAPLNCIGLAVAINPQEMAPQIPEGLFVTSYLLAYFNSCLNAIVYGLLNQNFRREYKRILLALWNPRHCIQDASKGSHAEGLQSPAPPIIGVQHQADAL
Method: as §1

[3] = membranes from stably transfected CHO cells, radioligand 2-[125I]-iodomelatonin
[4] = membranes from stably transfected CHO cells, radioligand 2-[125I]-iodomelatonin, read-out: hMT1 (converted)
[5] = membranes from stably transfected CHO cells, radioligand 2-[125I]-iodomelatonin, read-out: hMT2 (converted)

T1 sequence (A0A2P1K6N2 1-349): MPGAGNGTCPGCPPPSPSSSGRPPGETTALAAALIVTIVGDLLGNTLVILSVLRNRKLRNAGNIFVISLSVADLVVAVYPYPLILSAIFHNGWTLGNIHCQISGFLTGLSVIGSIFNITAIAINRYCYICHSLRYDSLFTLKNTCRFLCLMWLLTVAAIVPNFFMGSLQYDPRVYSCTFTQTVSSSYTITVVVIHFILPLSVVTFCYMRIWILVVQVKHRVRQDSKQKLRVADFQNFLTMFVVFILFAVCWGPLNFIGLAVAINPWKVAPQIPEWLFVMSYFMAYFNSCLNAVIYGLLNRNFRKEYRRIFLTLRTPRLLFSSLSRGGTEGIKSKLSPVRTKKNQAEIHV
Chain of hMT1 (P48039 whole entry): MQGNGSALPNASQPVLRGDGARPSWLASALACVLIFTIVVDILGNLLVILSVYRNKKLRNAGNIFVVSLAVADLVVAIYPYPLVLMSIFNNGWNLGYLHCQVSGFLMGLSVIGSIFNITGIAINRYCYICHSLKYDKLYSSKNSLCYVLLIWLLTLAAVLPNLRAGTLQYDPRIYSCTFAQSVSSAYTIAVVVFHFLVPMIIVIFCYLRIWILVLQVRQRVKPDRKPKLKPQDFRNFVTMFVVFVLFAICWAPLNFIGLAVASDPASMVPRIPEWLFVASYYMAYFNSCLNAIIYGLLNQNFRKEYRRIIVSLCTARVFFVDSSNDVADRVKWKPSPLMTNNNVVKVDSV

Molecule | Ki (hMT1; [4]) | Ki (Platypus Mel1C [1]) | Ki (hMT2; [5]) | Ki (Xenopus Mel1C) | other results
(S)-N-(2-(1,6,7,8-tetrahydro-2H-indeno-(5,4)furan-8-yl)ethyl)propionamide [Ramelteon ®] | – | – | – | – | hMT1 (hMT1; [3]): 10.1; Platypus Mel1C (Platypus Mel1C [1]): 9.9; pKi Xenopus laevis (X. laevis Mel1c receptor): 10.1; Xenopus Mel1C (Xenopus Mel1C): 9.9; pKi Ornithorhyncus anatinus (Platypus Mel1C [2]): 10.1; pKi Gallus gallus (G. gallus Mel1c receptor): 9.8
COc1ccc2ncn(CCNC(C)=O)c2c1 [S21278, N-[2-(6-methoxybenzimidazol-1-yl)ethyl]acetamide] | 0.631 µM | 2 µM | 0.631 µM | 1.58 µM | –
COc1ccc2[nH]cc(CCNC(C)=O)c2c1I [4-Iodomelatonin, N-[2-(4-iodo-5-methoxy-1H-indol-3-yl)ethyl]acetamide] | 0.0158 µM | 0.1 µM | 0.0126 µM | 0.251 µM | –
2-(2-[(2-iodo-4,5-dimethoxyphenyl)methyl]-4,5-dimethoxy phenyl [DIV880] | – | – | – | – | hMT1 (hMT1; [3]): 6.1; pKi (Platypus Mel1C [1]): 6.2; hMT2 (hMT2; [3]): 8.0; pKi (Xenopus Mel1C): 5.9
COc1cc2c(CCNC(C)=O)c(I)[nH]c2cc1[N+](=O)[O-] [S27128, N-[2-(2-iodo-5-methoxy-6-nitro-1H-indol-3-yl)ethyl]acetamide] | 0.00126 µM | 0.001 µM | – | 0.00251 µM | –
COc1ccc2cccc(CCNC(C)=O)c2c1 [Agomelatin ®, N-(2-(7-methoxynaphthalen-1-yl)ethyl)acetamide] | – | 0.000398 µM | – | 0.000794 µM | Ki (X. laevis Mel1c receptor; read-out: pKi Xenopus laevis (converted)): 0.000631 µM; pKi Ornithorhyncus anatinus (Platypus Mel1C [2]): 9.6
COc1ccc2cccc(C(CO)CNC(=O)CF)c2c1 (stereo not drawn) [S75436, 2-fluoro-N-[3-hydroxy-2-(7-methoxy-1-naphthyl)propyl]acetamide] | – | 0.00631 µM | – | 0.0158 µM | Ki (hMT1): 0.0126 µM; Ki (hMT2): 0.00126 µM
COCC(CNC(C)=O)c1cccc2ccc(OC)cc12 (stereo not drawn) [S73893, N-[3-methoxy-2-(7-methoxy-1-naphthyl)propyl]acetamide] | 0.00398 µM | 0.02 µM | 0.00794 µM | 0.0398 µM | –
COc1ccc(CCN(C)CCCC(C#N)(c2cc(OC)c(OC)c(OC)c2)C(C)C)cc1OC (stereo not drawn) [D600, methoxyverapamil] | 0.1 µM | 2 µM | > 10 µM | 2 µM | –
COc1ccc2[nH]c(-c3cccc4ccccc34)c(CCNC(=O)CI)c2n1 [S70254] | – | – | – | – | hMT1 (hMT1; [3]): 7.0; hMT2 (hMT2; [3]): 9.0; pKi Xenopus laevis (X. laevis Mel1c receptor): 6.8; pKi (Xenopus Mel1C): 6.3; pKi Ornithorhyncus anatinus (Platypus Mel1C [2]): 6.6; pKi Gallus gallus (G. gallus Mel1c receptor): 6.6
COc1ccc2[nH]c(I)c(CCNC(C)=O)c2c1 [2-Iodomelatonin, 2-iodomelatonin] | – | – | – | – | pKi Xenopus laevis (X. laevis Mel1c receptor): 10.0; pKi Ornithorhyncus anatinus (Platypus Mel1C [2]): 10.2; pKi Gallus gallus (G. gallus Mel1c receptor): 9.8
COc1cc2c(CCNC(C)=O)c[nH]c2cc1I [6-Iodomelatonin, N-[2-(6-iodo-5-methoxy-1H-indol-3-yl)ethyl]acetamide] | 0.00158 µM | 0.00398 µM | 0.00251 µM | 0.00794 µM | –
O=C(NCCc1cccc2ccccc12)C1CCC1 [S20928, (N-[2-(1-naphthyl)ethyl]cyclobutanecarboxamide)] | 0.0794 µM | 0.794 µM | 0.0794 µM | 1.26 µM | –
COc1cc(I)c2[nH]cc(CCNC(C)=O)c2c1 [7-Iodomelatonin] | – | – | – | – | hMT1 (hMT1): 7.3; pKi (Platypus Mel1C [1]): 7.5; hMT2 (hMT2): 7.3; pKi (Xenopus Mel1C): 7.3
COc1ccc2[nH]cc(CCNC(=O)CI)c2c1 [SD6, N-[2-(5-methoxy-1H-indol-3-yl)ethyl]iodoacetamide] | – | 0.000398 µM | – | 0.000501 µM | –

From publication PMC5846726, “Characterization of the Mel1c melatoninergic receptor in platypus (Ornithorhynchus anatinus)” (PLoS ONE, 2018)
